Measurements from patent publication US9624243B2, “Heterocyclic compounds and methods of their use” (Novartis AG, priority 2012, dated 2017).

molecular target: AT2 receptor (Homo sapiens (Human), UniProt P50052); assay: AT2 Receptor Binding; details: HEK293 AT2 receptor transient cell membranes, [125I]-CGP42112A
Protocol: 1. Trypsin-EDTA (for Preparation of 100 mL)
• Dissolve trypsin in 2% EDTA and PBS completely; sterilize the solution by passing through a […] membrane filter; store at 4° C.
2. DMEM Medium (for Preparation of 1 L) • The powder was dissolved into 950 mL of distilled water with gentle stirring until the solution becomes clear. • Add. NaHCO3 1.176 g for DMEM medium. • Adjust pH of medium to 0.2˜0.3 below final working pH using 1 M NaOH or 1 M • HCl. Add slowly with stirring. • Dilute to 1 liter with ddH2O. • Sterilize the medium immediately by filtration. • Store at 4° C.
3. TE Buffer • 20 mM Tris-HCl, pH 7.4, • 5 mM EDTA
4. Binding Assay Buffer • 50 mM Hepes, pH 7.4 • 5 mM MgCl2 • 1 mM CaCl2 • 0.2% BSA
5. Wash Buffer • 50 mM Hepes, pH 7.4 Procedures for HEK293AT2 Receptor Transient Cell Transfection • Cells were plated into 150 mm dish at 50% density for transient transfection. Cells were ready for transfection after overnight incubation (the confluence reaches around 80%). • 75 μL Lipofectamine™2000 diluted in 6.25 mL OptiMEM I Reduced Serum Medium, was mixed gently, and incubated at room temperature for 5 minutes. 50 μg expression plasmid DNA diluted in 6.25 mL OptiMEM I Reduced Serum Medium without serum was mixed gently. • After the 5 minute incubation, the diluted DNA was combined with the diluted Lipofectamine™2000 (total volume is 12.5 mL). The mixture was mixed gently and incubated for 30 minutes at room temperature to allow the DNA-Lipofectamine™2000 complexes to form. • The 12.5 mL DNA-Lipofectamine™2000 complexes were added into the 150 mm dish and mixed gently by rocking the dish back and forth. • The cells were incubated at 37° C. with 5% CO2 for 48 hours. Cells were collected and stored frozen at −80° C. Procedures for HEK293AT2 Receptor Cell Membrane Preparation • Frozen HEK293AT2 receptor (transient transfected) cells were homogenized in ice cold TE buffer for 10s. • The homogenate was centrifuged at 25,000 g for 30 minutes. • The pellet was resuspended in ice cold tissue buffer. • Protein concentrations were determined using Bradford assay method with BSA as standard. • The membrane protein was frozen under −80° C. Compound Preparation
Solutions of all compounds were prepared bymicroplate liquid handling equipment such as Janus or Precision 2000. Compounds, dissolved in DMSO were stored in a Freezer. Compounds were prepared from 30 mM in 100% DMSO.
Step 1: Dose Plate Preparation (96 Well Plate)
• Add the 3 μL [30 mM] compound stock to column 1 on the plate. • Add 15 μL of 100% DMSO to column 1. • Add 10.81 μL of 100% DMSO to column 2-12. • Transfer 5 μL from column 1 into column 2 (half log dilution). • Transfer 5 μL from column 2 into column 3 (half log dilution). • Transfer 5 μL from column 3 into column 4 (half log dilution). • Transfer 5 μL from column 4 into column 5 (half log dilution). • Transfer 5 μL from column 5 into column 6 (half log dilution). • Transfer 5 μL from column 6 into column 7 (half log dilution). • Transfer 5 μL from column 7 into column 8 (half log dilution). • Transfer 5 μL from column 8 into column 9 (half log dilution). • Transfer 5 μL from column 9 into column 10 (half log dilution) • Transfer 5 μL from column 10 into column 11 (half log dilution) • Transfer 5 μL from column 11 into column 12 (half log dilution).
All the compounds were diluted using Precision 2000 microplate liquid handling equipment. The top concentration of compound was 5 mM with 100% DMSO.
Step 2: Working Plate Preparation (96 Well Plate)
• Compounds were diluted 50-fold with buffer. • 49 μL buffer was added to the well of 96 well plate. • 1 μL compound solution from dose plate was transferred to the corresponding well of working plate. • The top concentration of compound was 100 μM with 2% DMSO. Step 3: Assay Plate Preparation (96 Well Plate)
15 μL of compound solution was transferred from each well of working plate to the well of assay plate by Janus.

Sequence of AT2 receptor (P50052 whole entry, species assumed): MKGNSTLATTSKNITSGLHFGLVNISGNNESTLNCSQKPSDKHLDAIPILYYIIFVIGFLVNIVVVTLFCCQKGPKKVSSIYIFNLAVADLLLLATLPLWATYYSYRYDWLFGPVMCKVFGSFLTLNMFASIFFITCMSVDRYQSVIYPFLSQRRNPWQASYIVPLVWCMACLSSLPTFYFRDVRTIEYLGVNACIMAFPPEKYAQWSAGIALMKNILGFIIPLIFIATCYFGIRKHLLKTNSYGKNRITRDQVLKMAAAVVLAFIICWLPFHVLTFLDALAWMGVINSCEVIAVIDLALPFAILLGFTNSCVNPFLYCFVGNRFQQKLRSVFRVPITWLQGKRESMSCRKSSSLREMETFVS

Compound | IC50 [nM]
O=C(O)[C@@H]1C[C@H](CSCc2ccccc2)CN1C(=O)C(c1ccccc1)c1ccccc1 [Compound 121, (2S,4S)-4-((benzylthio)methyl)-1-(2,2-diphenylacetyl)pyrrolidine-2-carboxylic acid] | 57.7
O=C(O)[C@@H]1C[C@H](N2CCC3(CC2)C(=O)NC3c2ccccc2)CN1C(=O)C(c1ccccc1)c1ccccc1 (stereo partly drawn) [Compound 75, (2S,4S)-1-(2,2-diphenylacetyl)-4-(1-oxo-3-phenyl-2,7-diazaspiro[3,5]nonan-7-yl)pyrrolidine-2-carboxylic acid] | 3830
O=C(O)[C@@H]1C[C@H](N2CC[C@@H](c3ccccc3)C2)CN1C(=O)C(c1ccccc1)c1ccccc1 [Compound 86] | 817
CN(CCCCc1ccccc1)[C@H]1C[C@@H](C(=O)O)N(C(=O)C(c2ccccc2)c2ccccc2)C1 [Compound 90, (2S,4S)-1-(2,2-diphenylacetyl)-4-(methyl(4-phenylbutyl)-amino)pyrrolidine-2-carboxylic acid] | 64.2
O=C(O)[C@@H]1C[C@H](N2CCCC2Cc2ccccc2)CN1C(=O)C(c1ccccc1)c1ccccc1 (single isomer, unassigned) [Compound 61-B, (3′S,5′S)-2-benzyl-V-(2,2-diphenylacetyl)-[1,3′-bipyrrolidine]-5′-carboxylic acid] | 107
O=C(O)[C@@H]1C[C@H](S(=O)(=O)CCCc2ccc(F)cc2)CN1C(=O)C(c1ccccc1)c1ccccc1 [Compound 134, (2S,4S)-1-(2,2-diphenylacetyl)-4((3-(4-fluorophenyl)propyl)sulfonyl)pyrrolidine-2-carboxylic acid] | 954
O=C(O)[C@@H]1C[C@H](N2CCC[C@@H](c3ccccc3)C2)CN1C(=O)C(c1ccccc1)c1ccccc1 [Compound 48, (2S,4S)-1-(2,2-diphenylacetyl)-4-((S)-3-phenylpiperidine-1-yl)pyrrolidine-2-carboxylic acid] | 89.4
O=C(O)[C@@H]1C[C@H](N2CCN(c3ccccc3)CC2)CN1C(=O)C(c1ccccc1)c1ccccc1 [Compound 23, (2S,4S)-1-(2,2-diphenylacetyl)-4-(4-phenylpiperazine)pyrrolidine-2-carboxylic acid] | 290
O=C(O)[C@@H]1C[C@H](CSc2ccccc2)CN1C(=O)C(c1ccccc1)c1ccccc1 [Compound 122, (2S,4S)-1-(2,2-diphenylacetyl)-4-((phenylthio)methyl)pyrrolidine-2-carboxylic acid] | 143
O=C(O)[C@H]1[C@H](OCCCc2ccccc2)CN1C(=O)C(c1ccccc1)c1ccccc1 (mixture of isomers) [Compound 143, (2R,3R)-3-(3-phenylpropoxy)-1-(2,2-diphenylacetyl)-azetidine-2-carboxylic acid and (2S,3S)-3-(3-phenylpropoxy)-1-(2,2-diphenylacetyl)-azetidine-2-carboxylic acid] | 372
O=C(O)[C@@H]1C[C@H](S(=O)(=O)CCCc2ccccc2)CN1C(=O)C(c1ccccc1)c1ccccc1 [Compound 125, (2S,4S)-1-(2,2-diphenylacetyl)-4-((3-phenylpropyl)-sulfonyl)pyrrolidine-2-carboxylic acid] | 1240
O=C(O)[C@@H]1C[C@@H](OCc2ccccc2)CN1C(=O)C(c1ccccc1)c1ccccc1 [Compound 3, (2S,4R)-4-(benzyloxy)-1-(2,2-diphenylacetyl)pyrrolidine-2-carboxylic acid] | 193
O=C(O)[C@@H]1C[C@H](SCCCc2ccccc2)CN1C(=O)C(c1ccccc1)c1ccccc1 [Compound 124, (2S,4S)-1-(2,2-diphenylacetyl)-4-((3-phenylpropyl)thio)-pyrrolidine-2-carboxylic acid] | 363
CN(CCCc1cccnc1)[C@H]1C[C@@H](C(=O)O)N(C(=O)C(c2ccccc2)c2ccccc2)C1 [Compound 93] | 126
O=C(O)[C@@H]1C[C@H](N2CCCC(Cc3ccccc3)C2)CN1C(=O)C(c1ccccc1)c1ccccc1 (stereo partly drawn) [Compound 53, (2S,4S)-4-(3-benzylpiperidin-1-yl)-1-(2,2-diphenylacetyl)-pyrrolidine-2-carboxylic acid] | 43.9
CN(CCCc1ccc(F)cc1)[C@H]1C[C@@H](C(=O)O)N(C(=O)C(c2ccccc2)c2ccccc2)C1 [Compound 91, (2S,4S)-1-(2,2-diphenylacetyl)-4-((3-(4-fluorophenyl)-propyl)(methyl)amino)pyrrolidine-2-carboxylic acid] | 12
O=C(O)[C@@H]1C[C@H](Oc2ccccc2Oc2ccccc2)CN1C(=O)C(c1ccccc1)c1ccccc1 [Compound 35, (2S,4S)-1-(2,2-diphenylacetyl)-4-(2-phenoxyphenoxy)-pyrrolidine-2-carboxylic acid] | 540
COc1ccc(CCCN(C)[C@H]2C[C@@H](C(=O)O)N(C(=O)C(c3ccccc3)c3ccccc3)C2)cc1C [Compound 92, (2S,4S)-1-(2,2-diphenylacetyl)-4-((3-(4-methoxy-3-methylphenyl)propyl)(methyl)amino)pyrrolidine-2-carboxylic acid] | 134
O=C(O)[C@@H]1C[C@H](OC[C@@H]2C[C@@H]2c2ccccc2)CN1C(=O)C(c1ccccc1)c1ccccc1 (mixture of isomers) [Compound 17, (2S,4S)-1-(2,2-diphenylacetyl)-4-(((1R,2S)-2-phenylcyclopropyl)methoxy)pyrrolidine-2-carboxylic acid and (2S,4S)-1-(2,2-diphenylacetyl)-4-(((1S,2R)-2-phenylcyclopropyl)methoxy)pyrrolidine-2-carboxylic acid] | 3970
CN(C(=O)CCc1ccccc1)[C@H]1C[C@@H](C(=O)O)N(C(=O)C(c2ccccc2)c2ccccc2)C1 [Compound 97, (2S,4S)-1-(2,2-diphenylacetyl)-4-(N-methyl-3-phenylpropanamido)pyrrolidine-2-carboxylic acid] | 458
O=C(O)[C@@H]1C[C@H](OCc2ccccc2)CN1C(=O)C(c1ccccc1)c1ccccc1 [Compound 2, (2S,4S)-4-(benzyloxy)-1-(2,2-diphenylacetyl)pyrrolidine-2-carboxylic acid] | 114
O=C(O)[C@@H]1C[C@H](CCCCc2ccccc2)CN1C(=O)C(c1ccccc1)c1ccccc1 [Compound 106, (2S,4S)-1-(2,2-diphenylacetyl)-4-(4-phenylbutyl)-pyrrolidine-2-carboxylic acid] | 426
O=C(O)[C@@H]1C[C@H](N2CCC3(CCOC(=O)N3Cc3ccccc3)C2)CN1C(=O)C(c1ccccc1)c1ccccc1 (some centres unmarked) [Compound 115] | 321
CS(=O)(=O)N(CCCc1ccccc1)[C@H]1C[C@@H](C(=O)O)N(C(=O)C(c2ccccc2)c2ccccc2)C1 [Compound 99, (2S,4S)-1-(2,2-diphenylacetyl)-4-(N-(3-phenylpropyl)-methylsulfonamido)pyrrolidine-2-carboxylic acid] | 536
O=C(O)[C@@H]1C[C@H](N2C(=O)COC[C@@H]2Cc2ccccc2)CN1C(=O)C(c1ccccc1)c1ccccc1 [Compound 102, (2S,4S)-4-((S)-3-benzyl-5-oxomorpholino)-1-(2,2-diphenylacetyl)pyrrolidine-2-carboxylic acid] | 499
O=C(O)[C@@H]1C[C@H](NCCc2ccccc2)CN1C(=O)C(c1ccccc1)c1ccccc1 [Compound 46, (2S,4S)-1-(2,2-diphenylacetyl)-4-(phenethylamino)-pyrrolidine-2-carboxylic acid] | 2260
